The values below come from patent US20230391727A1, “ANALOGUES OF PENTAMIDINE AND METHODS FOR TREATING INFECTIONS” (Auransa Inc., priority 2020, published 2023).

In one assay the test system is NCI H69 cells. As to the kind of experiment: CellTiter-Glo cell viability assay (cytotoxicity), 8 days. The conditions noted are these: Homo sapiens, 192 h, full growth media. It counts as cell-based. On the procedure:
The experiment tested pentamidine, Compounds 1-6 in full growth media for 8 days. NCI H69 cells were initially treated with the test compounds on Day 0, and the cells were then replenished with fresh compound dilutions on Day 3. Pentamidine and Compound 1 were tested at 9 concentration points: 100 μM, 33.33 μM, 11.11 μM, 3.70 μM, 1.23 μM, […], 0.05 μM, and 0.02 μM (final DMSO concentration=0.5%). The raw data values from the CellTiter-Glo™ cell viability assay expressed in relative luminescence units were normalized to the vehicle for each individual plate, and any reduction in luminescence indicated a decrease in viability (%). The data was analyzed in GraphPad PRISM using a non-linear sigmoidal plot with variable slope (asymmetric four-point […]), and an IC50 value for each compound was generated based on the normalized dose-response curves and shown in Table 1.

In another assay the test system is A. baumannii ATCC 17978. In words: Checkerboard assay with novobiocin (FIGS. 2, 3, 5, 6). Type of assay: cell-based, Acinetobacter baumannii. The note with it: for MIC: Acinetobacter baumannii, ATCC17978, substance alone. An excerpt:
Novobiocin is an anti-staphylococcal drug, but with limited use. The oral form of novobiocin drug has since been withdrawn from the market due to lack of efficacy. This antibiotic is often used to treat Staphylococcus aureus infection, particularly methicillin resistant S. aureus “MRSA”.

The next assay concerns S. aureus ATCC 43300. In words: MIC assay against gram positive S. aureus. It counts as cell-based. The conditions noted are these: Staphylococcus aureus, ATCC43300. The protocol:
(§1) Then the compound stocks were serially 2-fold diluted in a v-bottom 96-well plate to make 100-fold working solutions. One day before the test, −80° C. glycerol stock of S. aureus strains were streaked on cation-adjusted Mueller-Hinton agar (CAMHA) plates. On the day of test, fresh bacterial colonies were suspended into sterile saline to an OD600 nm of ˜0.1 (equivalent to 0.5 McFarland). The bacterial suspension was firstly 20-fold followed by 50-fold diluted in cation-adjusted Mueller-Hinton broth (CAMHB) plates to 1×10^6 CFU/PO. 198 ul of the inoculum was added into the round-bottom 96-well plates prefilled with 2 ul of 100-fold compound working solutions. After incubating at 35 +/−2° C. in ambient atmosphere for 18-24 h, MIC was recorded as the lowest concentration under which no visible bacterial growth was observed.

In another assay the test system is S. aureus ATCC 27660. As to the kind of experiment: MIC assay against gram positive S. aureus. It counts as cell-based. The conditions noted are these: Staphylococcus aureus, ATCC27660. The protocol:
as §1

In brackets after ≈: the same amount, converted by molar mass.

On to `N=C(N)c1cccc(CCCCCCCc2cccc(C(=N)N)c2)c1` [Compound 1, 3,3′-(heptane-1,7-diyl)dibenzimidamide], for which, in the assay on NCI H69 cells, half-maximal inhibition (IC50) was put at 0.31 µM. Also, in the assay on A. baumannii ATCC 17978, the “synergistic effect with novobiocin” value is on record as “clear synergistic effects”, the “synergy with novobiocin as compared to pentamidine with novobiocin” value is on record as “superior synergy” and the MIC is 149 µM.
In the assay with NCI H69 cells, `N=C(N)c1ccc(CC[C@@H]2CCC[C@@H](CCc3ccc(C(=N)N)cc3)C2)cc1` [Compound 4, 4,4′-(2,2′-((1R,3R)-cyclohexane-1,3-diyl)bis(ethane-2,1-diyl))dibenzimidamide] came in with an IC50 of 0.75 µM.
Turning to `N=C(N)c1ccc(CC[C@@H]2CCC[C@H](CCc3ccc(C4CCNC4)cc3)C2)cc1` (stereo partly drawn) [Compound 5, 4-(2-((1S,3R)-3-(4-(pyrrolidin-3-yl)phenethyl)cyclohexyl)ethyl)benzimidamide], the MIC against S. aureus ATCC 43300 and with S. aureus ATCC 27660 was 8 µg/mL (≈ 19.8 µM) each time. The same compound showed an IC50 with NCI H69 cells of 1.46 µM.
Take `N=C(N)c1cccc(CC[C@H]2CCC[C@@H](CCc3cccc(C(=N)N)c3)C2)c1` [Compound 6, 3,3′-(((1R,3S)-cyclohexane-1,3-diyl)bis(ethane-2,1-diyl))dibenzimidamide]: the IC50 with NCI H69 cells was 0.33 µM. That is a sub-micromolar value.
In the case of `Nc1nccc2ccc(CCCCCCCc3ccc4ccnc(N)c4c3)cc12` [Compound 7, 7,7′-(heptane-1,7-diyl)bis(isoquinolin-1-amine)], in the assay on NCI H69 cells, inhibition was half-maximal at 1.15 µM (IC50). In addition, in the assay with A. baumannii ATCC 17978, the “synergistic effect with novobiocin” value is “no synergistic effect” and the MIC was 8.13 µM.
On to `N=C(N)c1ccc(CCCCCCCc2ccc(C3CCNC3)cc2)cc1` (stereo not shown) [Compound 8, 4-(7-(4-(pyrrolidine-3-yl)phenyl)heptyl)benzimidamide], for which, in the assay with NCI H69 cells, half-maximal inhibition (IC50) required 1.92 µM. For the same compound, in the assay with A. baumannii ATCC 17978, the “synergy with novobiocin as compared to pentamidine with novobiocin” value is “increased synergy” and the MIC was greater than 34.4 µM.
On to `N=C(N)c1ccc(OCCCCCOc2ccc(C(=N)N)cc2)cc1` [Pentamidine, 1,5-bis(4-amidinophenoxy)pentane], for which the MIC against S. aureus ATCC 43300 came to 64 µg/mL (≈ 188 µM); against S. aureus ATCC 27660, 16 µg/mL (≈ 47 µM).
Consider `CO[C@@H]1[C@@H](OC(N)=O)[C@@H](O)[C@H](Oc2ccc3c(O)c(NC(=O)c4ccc(O)c(CC=C(C)C)c4)c(=O)oc3c2C)OC1(C)C` [novobiocin, reference compound], for which the MIC with A. baumannii ATCC 17978 was greater than 18.9 µM. Moreover, in the assay on A. baumannii ATCC 17978 (value used for FICI calculation), the “MIC of novobiocin when FICI is calculated” value is 37.8 µM.
